This is an account of results in PubChem BioAssay (NCI).

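Grown in 96-well plates, cells were treated for 48 hours with each compound at five concentrations. Insufficient inhibition: endpoint recorded as highest concentration tested. TGI marks complete inhibition of growth.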

Some test systems named below: KM20L2 colon; DLD-1 colon; DMS 114 small cell lung; HOP-18 NSCLC; XF 498 CNS; M19-MEL melanoma; SNB-78 CNS; PC-3 prostate; BT-549 breast; MCF7 breast.
Common to all, as to assay: DTP human tumour cell line panel, 48 h

Consider `O=c1c(Cl)c(Cl)cnn1CCc1ccncc1`, for which the TGI (commonly the concentration giving total growth inhibition) with KM20L2 colon is 36.2 µM; with DLD-1 colon, 30.4 µM; in the experiment with DMS 114 small cell lung it was 29 µM; with HOP-18 NSCLC, 34.2 µM; with XF 498 CNS, 29.6 µM; with M19-MEL melanoma, 30.8 µM. In addition, in the experiment on SNB-78 CNS, the TGI turned out to be 49.8 µM.
With `CC(=O)OC1COC(n2c(=S)n(-c3ccccc3)c(=O)c3cc(Br)ccc32)C(OC(C)=O)C1OC(C)=O` (stereo not given), the TGI is greater than 100 µM in the experiment with KM20L2 colon; greater than 100 µM in the experiment with DMS 114 small cell lung; greater than 100 µM in the experiment with HOP-18 NSCLC; 45.2 µM with XF 498 CNS; greater than 100 µM in the experiment on M19-MEL melanoma; greater than 100 µM with SNB-78 CNS.
Turning to `COc1c(Br)cc(Br)c(OC)c1-c1[nH]c(Br)c(Br)c1Br`, the TGI was found to be 22.4 µM in the experiment on KM20L2 colon; 18.4 µM in the experiment with DLD-1 colon; 19.4 µM with DMS 114 small cell lung; 9.05 µM with HOP-18 NSCLC; 14.3 µM in the experiment with XF 498 CNS; 23 µM with M19-MEL melanoma. The TGI in the experiment on SNB-78 CNS came to 28.8 µM.
Take `CCN(CC)CC(=O)N1CCc2c([nH]c3ccccc23)C1c1cccnc1` (stereo not given): the TGI with KM20L2 colon, in the experiment on DLD-1 colon, in the experiment with DMS 114 small cell lung, in the experiment with HOP-18 NSCLC, in the experiment with XF 498 CNS and in the experiment on M19-MEL melanoma was greater than 100 µM throughout. The TGI with SNB-78 CNS was greater than 100 µM.
Turning to `CNC(SC)=C1C(=O)OC(C)(C)OC1=O`, the TGI in the experiment on KM20L2 colon is greater than 100 µM; in the experiment on DLD-1 colon it was 54.2 µM; in the experiment with DMS 114 small cell lung, greater than 100 µM; in the experiment on HOP-18 NSCLC, greater than 100 µM; in the experiment with XF 498 CNS it was greater than 100 µM; in the experiment on M19-MEL melanoma, greater than 100 µM. For the same compound, the TGI in the experiment on SNB-78 CNS was greater than 100 µM.
Regarding `O=C/C(=C(/Cl)c1ccc(O)cc1)c1ccccc1`, the TGI in the experiment on KM20L2 colon was greater than 59.8 µM; in the experiment with DLD-1 colon it was greater than 60.1 µM; with DMS 114 small cell lung, 31.2 µM; in the experiment on HOP-18 NSCLC it was greater than 31.6 µM; in the experiment on XF 498 CNS it was greater than 45.4 µM; with M19-MEL melanoma, 42.1 µM. In addition, in the experiment with SNB-78 CNS, the TGI was greater than 82.9 µM.
For the compound `Cc1ccccc1Nc1nc2c(s1)C(=O)c1ccccc1C2=O`, the TGI in the experiment on KM20L2 colon is greater than 65.4 µM; in the experiment on DLD-1 colon it was 13.6 µM; in the experiment with DMS 114 small cell lung, 4.69 µM; with PC-3 prostate it was 7.95 µM; in the experiment on BT-549 breast it was 6.57 µM; with HOP-18 NSCLC, 24.9 µM. In addition, the TGI was 29.3 µM in the experiment with XF 498 CNS, 3.79 µM in the experiment on M19-MEL melanoma, greater than 64.8 µM in the experiment with SNB-78 CNS and 4.36 µM with MCF7 breast.
Regarding `COc1cccc(/C=C2\CCC(C)(CN(C)C)C2=O)c1` (stereo not given), the TGI in the experiment on KM20L2 colon, with DLD-1 colon, with DMS 114 small cell lung, in the experiment with HOP-18 NSCLC, in the experiment on XF 498 CNS and in the experiment on M19-MEL melanoma was greater than 100 µM each time. The same compound had a TGI with SNB-78 CNS greater than 100 µM.
Regarding `CC(CC(=O)Nc1ccc(NC(=O)CC(C)N=NC(N)=S)cc1)N=NC(N)=S` (stereo not given), the TGI with KM20L2 colon, in the experiment with DLD-1 colon, with DMS 114 small cell lung, in the experiment on HOP-18 NSCLC, in the experiment on XF 498 CNS and with M19-MEL melanoma was greater than 100 µM throughout. The TGI in the experiment on SNB-78 CNS was greater than 100 µM.
